Experimental findings from PubChem BioAssay (NCI) are described below.

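Briefly, cells in 96-well plates were exposed to five compound concentrations for 48 h, and endpoints were estimated by linear interpolation. The concentration for 50% growth inhibition is given as GI50. The concentration for full growth arrest is given as TGI.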

Test systems include 786-0 renal; CAKI-1 renal; HCC-2998 colon; IGROV1 ovarian; MDA-MB-435; OVCAR-3 ovarian; OVCAR-4 ovarian; PC-3 prostate; SK-MEL-5 melanoma; U251 CNS.
Common to all, as to test: NCI tumour cell line growth inhibition, 48 h

For the compound `NNc1ncnc2nc[nH]c12`, the GI50 in the assay with 786-0 renal is 3.03 µM; in the assay with CAKI-1 renal, 0.793 µM; with HCC-2998 colon it was 7.48 µM; in the assay on IGROV1 ovarian, 3.56 µM; in the assay on MDA-MB-435, 5.57 µM; in the assay on OVCAR-3 ovarian it was 3.56 µM. Moreover, the GI50 in the assay with OVCAR-4 ovarian is 3.79 µM; with PC-3 prostate, 6.07 µM; with SK-MEL-5 melanoma it was 6.05 µM; with U251 CNS it was 10.9 µM. In addition, the TGI in the assay on 786-0 renal was more than 83.8 µM; in the assay with CAKI-1 renal, 18.3 µM; in the assay with HCC-2998 colon, more than 58.1 µM; with IGROV1 ovarian it was more than 55.1 µM; in the assay on MDA-MB-435, more than 100 µM; with OVCAR-3 ovarian it was 26.9 µM. Moreover, the TGI in the assay on OVCAR-4 ovarian is more than 100 µM; in the assay with PC-3 prostate, more than 100 µM; in the assay on SK-MEL-5 melanoma, 36.4 µM; with U251 CNS, more than 100 µM.
Take `CCOC(=O)Nc1c(C)nc2ccccn12`: the GI50 in the assay on 786-0 renal, in the assay on CAKI-1 renal, with HCC-2998 colon, in the assay with IGROV1 ovarian, in the assay on MDA-MB-435 and in the assay with OVCAR-3 ovarian was more than 100 µM throughout. Besides, the GI50 in the assay on OVCAR-4 ovarian, with PC-3 prostate, with SK-MEL-5 melanoma and in the assay on U251 CNS was more than 100 µM each time. Besides, the TGI in the assay on 786-0 renal, with CAKI-1 renal, in the assay on HCC-2998 colon, in the assay on IGROV1 ovarian, in the assay with MDA-MB-435 and in the assay with OVCAR-3 ovarian was more than 100 µM each time. Besides, the TGI with OVCAR-4 ovarian, with PC-3 prostate, in the assay on SK-MEL-5 melanoma and with U251 CNS was more than 100 µM in each case.
`CC[C@]1(O)C[C@H]2CN(CCc3c([nH]c4ccccc34)C(C(=O)OC)(c3cc4c(cc3OC)N(C)[C@H]3[C@@](O)(C(=O)OC)[C@H](OC(C)=O)[C@]5(CC)[C@@H]6C[C@@H]6CN6CC[C@]43[C@@H]65)C2)C1` (stereo not given in full): the GI50 is 0.0068 µM with 786-0 renal; 0.0345 µM in the assay on CAKI-1 renal; 0.0045 µM in the assay on HCC-2998 colon; 0.00812 µM with IGROV1 ovarian; less than 0.00143 µM in the assay with MDA-MB-435; 0.00184 µM with OVCAR-3 ovarian. In addition, the GI50 in the assay on OVCAR-4 ovarian is 0.0266 µM; with PC-3 prostate it was 0.00296 µM; in the assay on SK-MEL-5 melanoma, 0.00184 µM; in the assay on U251 CNS, 0.00344 µM. For the same compound, the TGI in the assay with 786-0 renal was found to be 5 µM; in the assay on CAKI-1 renal it was 6.17 µM; in the assay with HCC-2998 colon, 0.278 µM; with IGROV1 ovarian, 5.11 µM; with MDA-MB-435, 0.00219 µM; with OVCAR-3 ovarian it was 0.00945 µM. The TGI is more than 7.51 µM with OVCAR-4 ovarian, more than 11.8 µM with PC-3 prostate, 0.0313 µM with SK-MEL-5 melanoma and 0.527 µM in the assay with U251 CNS.
For `O=[N+]([O-])c1ccccc1N=Nc1c(O)[nH]c2c(Cl)cc(Cl)cc12`, the TGI was 39 µM in the assay on 786-0 renal; more than 91.8 µM in the assay on CAKI-1 renal; more than 100 µM in the assay with HCC-2998 colon; more than 100 µM in the assay with IGROV1 ovarian; more than 100 µM with MDA-MB-435; more than 74.7 µM in the assay on OVCAR-3 ovarian. Besides, the TGI is more than 100 µM with OVCAR-4 ovarian, more than 100 µM in the assay on PC-3 prostate, more than 100 µM with SK-MEL-5 melanoma and 27.7 µM in the assay with U251 CNS.
As to `N#CC(I)CS(=O)(=O)c1ccccc1` (stereo not given), the GI50 with 786-0 renal is 19.1 µM; in the assay on CAKI-1 renal, 1.61 µM; in the assay with HCC-2998 colon, 17.7 µM; with IGROV1 ovarian, 16.2 µM; in the assay on MDA-MB-435, 17.6 µM; with OVCAR-3 ovarian, 2.03 µM. Besides, the GI50 was 2.01 µM in the assay on OVCAR-4 ovarian, 17 µM with PC-3 prostate, 17.7 µM with SK-MEL-5 melanoma and more than 100 µM with U251 CNS. The TGI was found to be 33.2 µM in the assay with 786-0 renal; 3.32 µM in the assay on CAKI-1 renal; 31.8 µM in the assay on HCC-2998 colon; 39.8 µM in the assay on IGROV1 ovarian; 34.5 µM in the assay on MDA-MB-435; 3.55 µM in the assay with OVCAR-3 ovarian. In addition, the TGI with OVCAR-4 ovarian is 4.69 µM; in the assay with PC-3 prostate it was 32.5 µM; with SK-MEL-5 melanoma it was 31.9 µM; in the assay on U251 CNS, more than 100 µM.
For `Cc1ccc2c(c1)c1ccc3c(c1n2C)C(=O)C=CC3=O`, the TGI in the assay with 786-0 renal was 3.44 µM; with CAKI-1 renal, 4.17 µM; in the assay with HCC-2998 colon, more than 10 µM; in the assay on IGROV1 ovarian, more than 10 µM; with MDA-MB-435 it was 5.15 µM; with OVCAR-3 ovarian, 4.53 µM. In addition, the TGI in the assay with OVCAR-4 ovarian is more than 5.56 µM; in the assay on PC-3 prostate, more than 9.27 µM; with SK-MEL-5 melanoma, more than 10 µM; with U251 CNS, more than 10 µM.
As to `O=C(CC(=O)Nc1ccccc1)NNC(Sc1ccccc1)c1cc(N=Nc2ccc(Br)cc2)ccc1O` (stereo not given), the TGI in the assay with 786-0 renal, with CAKI-1 renal, with HCC-2998 colon, in the assay on IGROV1 ovarian, in the assay on MDA-MB-435 and in the assay on OVCAR-3 ovarian was more than 10 µM each time. In addition, the TGI was more than 10 µM in the assay with OVCAR-4 ovarian, more than 10 µM with PC-3 prostate, 4.6 µM in the assay on SK-MEL-5 melanoma and more than 10 µM with U251 CNS.
On to `COc1ccc(/C=C\c2cc(OC)c(OC)c(OC)c2)cc1OCC(=O)O`, for which the TGI in the assay on 786-0 renal was more than 100 µM; with CAKI-1 renal, more than 100 µM; with HCC-2998 colon, more than 100 µM; in the assay on IGROV1 ovarian, more than 100 µM; in the assay on MDA-MB-435, 3.27 µM; in the assay with OVCAR-3 ovarian, 8.25 µM. Besides, the TGI was more than 86.1 µM in the assay with OVCAR-4 ovarian, more than 91.3 µM in the assay on PC-3 prostate, 50.1 µM with SK-MEL-5 melanoma and 39.6 µM with U251 CNS.
With `O=C(Nc1nc(-c2c[nH]c3ccccc23)cs1)c1n[nH]c(=O)c2ccccc12`, the GI50 in the assay on 786-0 renal is 1.48 µM; in the assay on CAKI-1 renal it was 2.44 µM; with HCC-2998 colon, 18.1 µM; with IGROV1 ovarian, 2.01 µM; in the assay on MDA-MB-435, 3.96 µM; with OVCAR-3 ovarian, 13.6 µM. The GI50 in the assay on OVCAR-4 ovarian was 20.6 µM; with PC-3 prostate, 10.2 µM; in the assay with SK-MEL-5 melanoma it was 1.44 µM; in the assay with U251 CNS, 0.663 µM. For the same compound, the TGI is more than 47.5 µM in the assay on 786-0 renal; more than 62.3 µM with CAKI-1 renal; more than 100 µM in the assay on HCC-2998 colon; 34.7 µM with IGROV1 ovarian; more than 100 µM in the assay with MDA-MB-435; more than 83.7 µM in the assay with OVCAR-3 ovarian. Also, the TGI in the assay on OVCAR-4 ovarian is more than 100 µM; in the assay with PC-3 prostate it was more than 100 µM; in the assay on SK-MEL-5 melanoma, more than 100 µM; with U251 CNS, 24 µM.
